# Data as given in US11203582B2, “Benzamide derivatives for inhibiting endoplasmic reticulum (ER) stress” (The Board of Regents of the University of Oklahoma, priority 2017, dated 2021).
# Legend:
# Format in all cases: cell-based, rat
# [1] = system: MafA mRNA; assay: qRT-PCR of MafA mRNA in Tm-treated INS-1 cells; conditions: Tm co-treatment, 24 h
# Experimental: (§1) (A-D) INS-1 cells were treated with or without Tm (0.1 m/mL) in the presence of 13d at indicated concentrations or DMSO for 24 h. The mRNA levels of INS1 (A), INS2 (B), PDX1 (C), and MafA (D), were analyzed by qRT-PCR. Relative mRNA levels were normalized against the housekeeping gene Cyclophilin A using the comparative CT method. The results are the means of 3 replicate wells and are representative of 3 independent experiments. * P<0.05 and ** P<0.01 compared with Tm treatment alone. Bars indicate SD. (E) Insulin secretion by INS-1 cells incubated with 1.7 mM and 20 mM glucose in the presence or absence of Tm (0.1 μg/mL) and 13d. Secreted insulin was measured by ELISA after 24 h treatment. * P<0.05. The amount of insulin secreted in response to 1.7 mM glucose in the absence of Tm was set to 1.0 and was normalized with total protein concentration.
# (§2) INS-1 cells were seeded at 4×10^5 cells/well in 6-well plates and treated with compounds for the indicated times. […] Relative mRNA levels were normalized against the housekeeping gene Cyclophilin A and were determined by ΔΔCt calculated from the difference in ΔCt values between the target gene and Cyclophilin A with and without treatment, based on comparative CT (cycle threshold) method. […]
# [2] = system: INS2 mRNA; assay: qRT-PCR of INS2 mRNA in Tm-treated INS-1 cells; conditions: Tm co-treatment, 24 h
# Experimental: as §1, §2
# [3] = system: cleaved PARP; assay: Western blotting of cleaved PARP in Tm-treated INS-1 cells; conditions: Tm co-treatment, 24 h
# Experimental: To determine whether the increase in β-cell viability following treatment with 13d is caused by a suppression of apoptotic cell death, several apoptosis-related makers were measured. First, levels of cleaved caspase-3 and cleaved PARP were assayed by Western blotting. Caspase-3, a member of executioner caspases activated by cleavage, plays essential roles in initiating apoptotic signaling and executing the final stages of cell death, whereas the nuclear enzyme poly (ADP-ribose) polymerase (PARP) plays an important role in a number of cellular processes involving DNA repair and cell death. […] However, upon severe ER stress, caspase 3 undergoes proteolytic cleavage to produce two subunits that dimerize to form the active enzyme, which in turns cleaves PARP. […] A further assessment of apoptotic INS-1 cell death was performed using TUNEL assays to detect nuclear DNA fragmentation (a consequence of cell apoptosis) in situ.
# INS-1 cells were seeded in 60-mm dishes at 8×10^5 cells/dish and treated for the indicated times. Cells were then washed with PBS and lysed with lysis buffer (Cell Signaling Technology, Danvers, Mass.) containing EDTA (Thermo, Ill.) and phosphatase inhibitors (Thermo). Aliquots of 20 μg total protein were separated on 7% SDS-PAGE gels (Life Technologies) and transferred to PVDF membranes (Life Technologies). […]
# [4] = system: ATF4 mRNA; assay: qRT-PCR of ATF4 mRNA in INS-1 cells
# Experimental: (A, B) INS-1 cells were treated with or without Tm (0.1 μg/mL) in the presence of 13d or DMSO for 8 h. ATF4 (A) and CHOP (B) mRNA levels were analyzed by qRT-PCR. Relative mRNA levels were normalized against the housekeeping gene Cyclophilin A using the comparative CT method. The results were expressed as the fold-increase over mRNA levels in untreated control cells and are the means of 3 replicate wells and representative of 3 independent experiments. ** P<0.01 compared with Tm treatment alone. Bar indicates SD. (C-E) INS-1 cells were treated with or without Tm (0.1 μg/mL) in the presence of 13d or DMSO for 8 hATF4 and CHOP protein levels were determined by Western blotting (C). α-Tubulin was used as an internal control. Quantification of ATF4 (D) and CHOP (E) protein levels was analyzed by ImageJ program, which was normalized by α-Tubulin protein level. The data shown are representative of 3 independent experiments.
# Having established that compound 13d restores ER stress-impaired β-cell survival and function, we next investigated the mechanism of action by which 13d protects β-cells against ER stress. Chronic or severe ER stress activates all three branches of the UPR, PERK, IRE1α, and ATF6, leading to eventual cell death. First, we determined the effect of 13d on the activation of the PERK pathway in β-cells under ER stress. […]
# [5] = system: PDX1 mRNA; assay: qRT-PCR of PDX1 mRNA in Tm-treated INS-1 cells; conditions: Tm co-treatment, 24 h
# Experimental: as §1, §2
# [6] = system: INS-1 cells; assay: Glucose-stimulated insulin secretion (ELISA) in Tm-treated INS-1 cells; conditions: Tm 0.1 μg/mL, 24 h, 20 mM glucose
# Experimental: as §1
# INS-1 or primary human islet cells were plated in 96-well plates. The second day, Tm and test compound were added and maintained for 24 h (INS-1) or 48 h (human islets). […] The secreted insulin was measured with insulin ELISA kits (for mouse insulin from Millipore and for human insulin from LifeTech). Cells were lysed with RIPA buffer (50 mM Tris HCl pH 7.4, 1% NP-40, 0.25% sodium deoxycholate, 150 mM NaCl), and total cellular protein was determined with a Bradford protein assay. […]
smiles,measurement,setting,value
"O=C(NCc1ccc(C(F)(F)F)cc1)c1cccc(CN2CCCCC2)c1 [Compound 13d, N-(4-trifluoromethylphenmethyl)-3-(N-piperidinyl)methyl benzamide]",Tm-decreased MafA mRNA expression level,[1],completely rescued
same,Tm-suppressed INS2 mRNA level,[2],completely rescued
same,Tm-induced cleavage of PARP,[3],completely or significantly diminished
same,Tm-induced increase in ATF4 mRNA level,"[4]; Tm 0.1 μg/mL co-treatment, 8 h",almost completely abolished
same,effect on ATF4 mRNA level on its own,[4]; without Tm,no effect
same,Tm-decreased PDX1 mRNA expression level,[5],completely rescued
same,glucose-stimulated insulin secretion (GSIS) in Tm-treated cells,[6],significantly rescued
